Experimental data from ChEMBL document CHEMBL3860070, “Optimization and biological evaluation of celastrol derivatives as Hsp90-Cdc37 interaction disruptors with improved druglike properties” (Bioorg Med Chem, 2016).
Calls of active or inactive are those of the source. The rule behind the calls is not given here.

How the values were obtained:
[1] = Antiproliferative activity against human A549 cells assessed as reduction in cell viability after 48 hrs by MTT assay; type: functional, cell-based; settings: A549, 48 h
[2] = Antiproliferative activity against paclitaxel-resistant human A549 cells assessed as reduction in cell viability after 48 hrs by MTT assay; type: functional, cell-based; settings: A549, 48 h
[3] = Antiproliferative activity against human MCF7 cells assessed as reduction in cell viability after 48 hrs by MTT assay; type: functional, cell-based; settings: MCF7, 48 h
[4] = Permeability of the compound at pH 7.4 by PAMPA-based pION assay; type: ADME; settings: read-out: permeability
[5] = Inhibition of His-tagged full length Hsp90/GST-tagged Cdc37 middle domain (unknown origin) interaction after 1 hr by TR-FRET assay; set-up: species or system Homo sapiens
Homo sapiens = species on record: Homo sapiens; assay: Inhibition of His-tagged full length Hsp90/GST-tagged Cdc37 middle domain (unknown origin) interaction at 50 uM after 1 hr by TR-FRET assay relative to control
[6] = Antiproliferative activity against human PANC1 cells assessed as reduction in cell viability after 48 hrs by MTT assay; type: functional, cell-based; settings: PANC-1, 48 h
[7] = Cell cycle arrest in human PANC1 cells assessed as accumulation at G2/M phase at 0.5 uM after 24 hrs by propidium iodide staining-based FACS analysis (reference value: 33.56 %); type: functional; settings: PANC-1
[8] = Cell cycle arrest in human PANC1 cells assessed as accumulation at S phase at 1 uM after 24 hrs by propidium iodide staining-based FACS analysis (reference value: 29.96 %); type: functional; settings: PANC-1
PANC-1 [9] = assay: Induction of apoptosis in human PANC1 cells assessed as viable cells at 0.5 uM after 24 hrs by Annexin V-FITC/propidium iodide-based FACS analysis (reference value: 94.63 %); type: functional; settings: PANC-1, 24 h, read-out: Activity
PANC-1 [10] = assay: Induction of apoptosis in human PANC1 cells assessed as late apoptotic cells at 1 uM after 24 hrs by Annexin V-FITC/propidium iodide-based FACS analysis (reference value: 0.30 %); type: functional
[11] = Cell cycle arrest in human PANC1 cells assessed as accumulation at G0/G1 phase at 0.5 uM after 24 hrs by propidium iodide staining-based FACS analysis (reference value: 36.48 %); type: functional; settings: PANC-1
PANC-1 [12] = assay: Induction of apoptosis in human PANC1 cells assessed as necrotic cells at 0.5 uM after 24 hrs by Annexin V-FITC/propidium iodide-based FACS analysis (reference value: 0.75 %); type: functional
[13] = Cell cycle arrest in human PANC1 cells assessed as accumulation at S phase at 0.5 uM after 24 hrs by propidium iodide staining-based FACS analysis (reference value: 29.96 %); type: functional; settings: PANC-1
PANC-1 [14] = assay: Inhibition of Hsp90/Cdc37 interaction in human PANC1 cells assessed as downregulation of Akt after 24 hrs by Western blot analysis; type: cell-based
PANC-1 [15] = assay: Inhibition of Hsp90/Cdc37 interaction in human PANC1 cells assessed as downregulation of Cdk4 after 24 hrs by Western blot analysis; type: cell-based
[16] = Cell cycle arrest in human PANC1 cells assessed as accumulation at G2/M phase at 1 uM after 24 hrs by propidium iodide staining-based FACS analysis (reference value: 33.56 %); type: functional; settings: PANC-1
PANC-1 [17] = assay: Induction of apoptosis in human PANC1 cells assessed as necrotic cells at 1 uM after 24 hrs by Annexin V-FITC/propidium iodide-based FACS analysis (reference value: 0.75 %); type: functional
PANC-1 [18] = assay: Induction of apoptosis in human PANC1 cells assessed as early apoptotic cells at 1 uM after 24 hrs by Annexin V-FITC/propidium iodide-based FACS analysis (reference value: 4.31 %); type: functional
PANC-1 [19] = assay: Induction of apoptosis in human PANC1 cells after 24 hrs by Annexin V-FITC/propidium iodide-based FACS analysis; type: functional, cell-based
PANC-1 [20] = assay: Inhibition of Hsp90/Cdc37 interaction in human PANC1 cells assessed as induction of Hsp70 at 0.1 to 5 uM after 24 hrs by Western blot analysis; type: cell-based
PANC-1 [21] = assay: Induction of apoptosis in human PANC1 cells assessed as viable cells at 1 uM after 24 hrs by Annexin V-FITC/propidium iodide-based FACS analysis (reference value: 94.63 %); type: functional; settings: PANC-1, 24 h, read-out: Activity
PANC-1 [22] = assay: Induction of apoptosis in human PANC1 cells assessed as late apoptotic cells at 0.5 uM after 24 hrs by Annexin V-FITC/propidium iodide-based FACS analysis (reference value: 0.30 %); type: functional
PANC-1 [23] = assay: Induction of apoptosis in human PANC1 cells assessed as early apoptotic cells at 0.5 uM after 24 hrs by Annexin V-FITC/propidium iodide-based FACS analysis (reference value: 4.31 %); type: functional
[24] = Cell cycle arrest in human PANC1 cells assessed as accumulation at G0/G1 phase at 1 uM after 24 hrs by propidium iodide staining-based FACS analysis (reference value: 36.48 %); type: functional; settings: PANC-1

SMILES | IC50 [1] | IC50 [3] | Papp [4] | inhibition (Homo sapiens) | IC50 [6] | other results
CC1=C(O)C(=O)C=C2C1=CC=C1[C@@]2(C)CC[C@@]2(C)[C@@H]3C[C@](C)(C(=O)O)CC[C@]3(C)CC[C@]12C [CELASTROL] | 2.02 µM | 2.13 µM | 133 nm/s | 91.8% | 2.48 µM | IC50 [2]: 2.01 µM; IC50 [5]: 6.49 µM
CCCOC(=O)[C@]1(C)CC[C@]2(C)CC[C@]3(C)C4=CC=C5C(=CC(=O)C(O)=C5C)[C@]4(C)CC[C@@]3(C)[C@@H]2C1 | 1.74 µM | 1.52 µM | – | 44.9% | 1.31 µM | –
CCOC(=O)[C@]1(C)CC[C@]2(C)CC[C@]3(C)C4=CC=C5C(=CC(=O)C(O)=C5C)[C@]4(C)CC[C@@]3(C)[C@@H]2C1 | 1.97 µM | 1.76 µM | – | 54.8% | 1.56 µM | –
COC(=O)[C@]1(C)CC[C@]2(C)CC[C@]3(C)C4=CC=C5C(=CC(=O)C(O)=C5C)[C@]4(C)CC[C@@]3(C)[C@@H]2C1 [PRISTIMERIN] | 1.4 µM | 1.57 µM | – | 60.5% | 1.49 µM | –
CCNC(=O)[C@]1(C)CC[C@]2(C)CC[C@]3(C)C4=CC=C5C(=CC(=O)C(O)=C5C)[C@]4(C)CC[C@@]3(C)[C@@H]2C1 | 2.08 µM | 1.43 µM | – | 69% | 1.82 µM | –
CC1=C(O)C(=O)C=C2C1=CC=C1[C@@]2(C)CC[C@@]2(C)[C@@H]3C[C@](C)(C(=O)NCCN4CCCC4)CC[C@]3(C)CC[C@]12C | 0.67 µM | 1.1 µM | 230 nm/s | 89.2% | 1.03 µM | IC50 [5]: 6.5 µM
CCCNC(=O)[C@]1(C)CC[C@]2(C)CC[C@]3(C)C4=CC=C5C(=CC(=O)C(O)=C5C)[C@]4(C)CC[C@@]3(C)[C@@H]2C1 | 2.49 µM | 2.04 µM | – | 60% | 2.37 µM | –
CC1=C(O)C(=O)C=C2C1=CC=C1[C@@]2(C)CC[C@@]2(C)[C@@H]3C[C@](C)(C(=O)NCCCn4ccnc4)CC[C@]3(C)CC[C@]12C | 3.37 µM | 1.84 µM | 6 nm/s | 71.7% | 1.53 µM | –
CCN(CC)CCNC(=O)[C@]1(C)CC[C@]2(C)CC[C@]3(C)C4=CC=C5C(=CC(=O)C(O)=C5C)[C@]4(C)CC[C@@]3(C)[C@@H]2C1 | 0.71 µM | 1.03 µM | 531 nm/s | 94.5% | 1.27 µM | IC50 [5]: 5.74 µM
CC1=C(O)C(=O)C=C2C1=CC=C1[C@@]2(C)CC[C@@]2(C)[C@@H]3C[C@](C)(C(=O)OC(C)C)CC[C@]3(C)CC[C@]12C | 2.58 µM | 1.32 µM | – | 51.5% | 1.36 µM | –
CC1=C(O)C(=O)C=C2C1=CC=C1[C@@]2(C)CC[C@@]2(C)[C@@H]3C[C@](C)(C(=O)NCCN(C)C)CC[C@]3(C)CC[C@]12C | 1.08 µM | 0.64 µM | 450 nm/s | 93.6% | 1.23 µM | IC50 [5]: 5.63 µM
CC(=O)NCCNC(=O)[C@]1(C)CC[C@]2(C)CC[C@]3(C)C4=CC=C5C(=CC(=O)C(O)=C5C)[C@]4(C)CC[C@@]3(C)[C@@H]2C1 | 3.12 µM | 2.26 µM | – | 70.5% | 3 µM | –
CNC(=O)[C@]1(C)CC[C@]2(C)CC[C@]3(C)C4=CC=C5C(=CC(=O)C(O)=C5C)[C@]4(C)CC[C@@]3(C)[C@@H]2C1 | 1.93 µM | 1.2 µM | – | 69.2% | 1.42 µM | –
CC1=C(O)C(=O)C=C2C1=CC=C1[C@@]2(C)CC[C@@]2(C)[C@@H]3C[C@](C)(C(=O)NCCN(C(C)C)C(C)C)CC[C@]3(C)CC[C@]12C | 0.8 µM | 1.26 µM | 352 nm/s | 81.6% | 1.05 µM | –
CC1=C(O)C(=O)C=C2C1=CC=C1[C@@]2(C)CC[C@@]2(C)[C@@H]3C[C@](C)(C(=O)N4CCCCC4)CC[C@]3(C)CC[C@]12C | 1.92 µM | 1.89 µM | – | 54.8% | 2.29 µM | –
CC1=C(O)C(=O)C=C2C1=CC=C1[C@@]2(C)CC[C@@]2(C)[C@@H]3C[C@](C)(C(=O)NCCN4CCN(C)CC4)CC[C@]3(C)CC[C@]12C | 1.01 µM | 1.02 µM | 290 nm/s | 96.9% | 1.12 µM | Activity [7]: 32%; Activity [8]: 18.7%; viability at 0.5 µM (PANC-1 [9]): 90%; IC50 [2]: 0.45 µM; Activity (PANC-1 [10]): 2.61%; Activity [11]: 46.6%; Activity (PANC-1 [12]): 1.27%; Activity [13]: 21.4%; inhibition (PANC-1 [14]): Dose-dependent effect; inhibition (PANC-1 [15]): Dose-dependent effect; Activity [16]: 25.9%; Activity (PANC-1 [17]): 2.31%; IC50 [5]: 4.71 µM; Activity (PANC-1 [18]): 31.01%; Activity (PANC-1 [19]): Dose-dependent effect; inhibition (PANC-1 [20]): Active; viability at 1 µM (PANC-1 [21]): 64.1%; Activity (PANC-1 [22]): 0.4%; Activity (PANC-1 [23]): 8.37%; Activity [24]: 55.4%
CC1=C(O)C(=O)C=C2C1=CC=C1[C@@]2(C)CC[C@@]2(C)[C@@H]3C[C@](C)(C(=O)N(C)C)CC[C@]3(C)CC[C@]12C | 1.81 µM | 1.43 µM | – | 60.6% | 2.66 µM | –
CC1=C(O)C(=O)C=C2C1=CC=C1[C@@]2(C)CC[C@@]2(C)[C@@H]3C[C@](C)(C(=O)OCC(C)C)CC[C@]3(C)CC[C@]12C | 3.42 µM | 2.06 µM | – | 28.4% | 1.9 µM | –
CC1=C(O)C(=O)C=C2C1=CC=C1[C@@]2(C)CC[C@@]2(C)[C@@H]3C[C@](C)(C(=O)NCCN4CCCCC4)CC[C@]3(C)CC[C@]12C | 0.84 µM | 1.18 µM | 181 nm/s | 75.7% | 1.25 µM | –
CC1=C(O)C(=O)C=C2C1=CC=C1[C@@]2(C)CC[C@@]2(C)[C@@H]3C[C@](C)(C(=O)NCCS(C)(=O)=O)CC[C@]3(C)CC[C@]12C | 2.41 µM | 1.3 µM | – | 69.8% | 1.2 µM | –
CC1=C(O)C(=O)C=C2C1=CC=C1[C@@]2(C)CC[C@@]2(C)[C@@H]3C[C@](C)(C(=O)N4CCCC4)CC[C@]3(C)CC[C@]12C | 2.85 µM | 1.81 µM | – | 56.4% | 2.11 µM | –
CC1=C(O)C(=O)C=C2C1=CC=C1[C@@]2(C)CC[C@@]2(C)[C@@H]3C[C@](C)(C(=O)NC(C)C)CC[C@]3(C)CC[C@]12C | 2.64 µM | 2.55 µM | – | 60% | 2.04 µM | –
CC1=C(O)C(=O)C=C2C1=CC=C1[C@@]2(C)CC[C@@]2(C)[C@@H]3C[C@](C)(C(=O)N4CCCC(C)C4)CC[C@]3(C)CC[C@]12C (stereo not given in full) | 2.43 µM | 2.03 µM | – | 47.9% | 1.84 µM | –
CC1=C(O)C(=O)C=C2C1=CC=C1[C@@]2(C)CC[C@@]2(C)[C@@H]3C[C@](C)(C(=O)NCCN4CCOCC4)CC[C@]3(C)CC[C@]12C | 1.27 µM | 1.34 µM | 114 nm/s | 77.2% | 1.35 µM | –
